Assay results from patent publication US6770597B2, “Benzohydrazide derivatives as herbicides and desiccant compositions containing them” (Ishihara Sangyo Kaisha, Ltd., priority 2002, dated 2004).

Assays:
Type in all cases: in vivo
[1] = test system: barnyardgrass (Echinochloa crus-galli, ECHCG); assay: Greenhouse herbicide screen, post-emerge application, phytotoxicity rating; settings: POST emergent, 14 days after application, scale 0-100
Procedure, shortened: (§1)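 Seeds went into sandy loam soil mix, one day before spraying for pre-emergence or 8–21 days before for post-emergence. Test substances in acetone were then sprayed at rates of 15–1000 g ai/ha. Damage was scored 0–100 fourteen days later.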

[2] = test system: cocklebur (Xanthium strumarium, XANST); assay: as above; settings: POST emergent, 14 days after application, scale 0-100
Procedure, shortened: as §1

[3] = test system: common ragweed (Ambrosia artemisiifolia L., AMBEL); assay: as above; settings: POST emergent, 14 days after application, scale 0-100
Procedure, shortened: as §1

[4] = test system: green foxtail (Setaria viridis, SETVI); assay: as above; settings: POST emergent, 14 days after application, scale 0-100
Procedure, shortened: as §1

[5] = test system: ivyleaf morningglory (Ipomoea hederacea, IPOHE); assay: as above; settings: POST emergent, 14 days after application, scale 0-100
Procedure, shortened: as §1

[6] = test system: johnsongrass (Sorghum halepense, SORHA); assay: as above; settings: POST emergent, 14 days after application, scale 0-100
Procedure, shortened: as §1

[7] = test system: lambsquarters (Chenopodium album, CHEAL); assay: as above; settings: POST emergent, 14 days after application, scale 0-100
Procedure, shortened: as §1

[8] = test system: large crabgrass (Digitaria sanguinalis, DIGSA); assay: as above; settings: POST emergent, 14 days after application, scale 0-100
Procedure, shortened: as §1

[9] = test system: redroot pigweed (Amaranthus retrofiexus, AMARE); assay: as above; settings: POST emergent, 14 days after application
Procedure, shortened: as §1

[10] = test system: sicklepod (Cassia obtusifolia, CASOB); assay: as above; settings: POST emergent, 14 days after application, scale 0-100
Procedure, shortened: as §1

[11] = test system: velvetleaf (Abutilon theophrasti, ABUTH); assay: as above; settings: POST emergent, 14 days after application, scale 0-100
Procedure, shortened: as §1

[12] = test system: field corn (Zea mays L., var. Dekalb 535, CORN); assay: Greenhouse herbicide screen, post-emerge application, crop damage rating; settings: POST emergent, 14 days after application, scale 0-100
Procedure, shortened: as §1

[13] = test system: upland rice (Oryza sp., var.Cocodrie, RICE); assay: as above; settings: POST emergent, 14 days after application, scale 0-100
Procedure, shortened: as §1

[14] = test system: barnyardgrass (Echinochloa crus-galli, ECHCG); assay: Greenhouse herbicide screen, pre-emerge application, phytotoxicity rating; settings: PRE emergent, 14 days after application, rating scale 0-100
Procedure, shortened: as §1

[15] = test system: cocklebur (Xanthium strumarium, XANST); assay: as above; settings: PRE emergent, 14 days after application, rating scale 0-100
Procedure, shortened: as §1

[16] = test system: common ragweed (Ambrosia artemisiifolia L., AMBEL); assay: as above; settings: PRE emergent, 14 days after application, rating scale 0-100
Procedure, shortened: as §1

[17] = test system: green foxtail (Setaria viridis, SETVI); assay: as above; settings: PRE emergent, 14 days after application, rating scale 0-100
Procedure, shortened: as §1

[18] = test system: ivyleaf morningglory (Ipomoea hederacea, IPOHE); assay: as above; settings: PRE emergent, 14 days after application, rating scale 0-100
Procedure, shortened: as §1

[19] = test system: johnsongrass (Sorghum halepense, SORHA); assay: as above; settings: PRE emergent, 14 days after application, rating scale 0-100
Procedure, shortened: as §1

[20] = test system: lambsquarters (Chenopodium album, CHEAL); assay: as above; settings: PRE emergent, 14 days after application, rating scale 0-100
Procedure, shortened: as §1

[21] = test system: large crabgrass (Digitaria sanguinalis, DIGSA); assay: as above; settings: PRE emergent, 14 days after application, rating scale 0-100
Procedure, shortened: as §1

[22] = test system: redroot pigweed (Amaranthus retrofiexus, AMARE); assay: as above; settings: PRE emergent, 14 days after application, rating scale 0-100
Procedure, shortened: as §1

[23] = test system: sicklepod (Cassia obtusifolia, CASOB); assay: as above; settings: PRE emergent, 14 days after application, rating scale 0-100
Procedure, shortened: as §1

[24] = test system: velvetleaf (Abutilon theophrasti, ABUTH); assay: as above; settings: PRE emergent, 14 days after application, rating scale 0-100
Procedure, shortened: as §1

[25] = test system: field corn (Zea mays L., var. Dekalb 535, CORN); assay: Greenhouse herbicide screen, pre-emerge application, crop damage rating; settings: PRE emergent, 14 days after application, rating scale 0-100
Procedure, shortened: as §1

[26] = test system: upland rice (Oryza sp., var.Cocodrie, RICE); assay: as above; settings: PRE emergent, 14 days after application, rating scale 0-100
Procedure, shortened: as §1

Cn1c(C(F)(F)F)cc(=O)n(-c2cc(C(=O)NN(Cc3ccccc3)Cc3ccccc3)c(Cl)cc2F)c1=O [Compound 1-29]
10: crop damage rating CORN ([12]; 63 g ai/ha) | crop damage rating RICE ([13]; 250 g ai/ha) | crop damage rating CORN ([25]; 63 g ai/ha) | crop damage rating RICE ([26]; 250 g ai/ha)
90: phytotoxicity rating XANST ([2]; 250 g ai/ha) | phytotoxicity rating IPOHE ([5]; 63 g ai/ha) | phytotoxicity rating XANST ([15]; 250 g ai/ha) | phytotoxicity rating IPOHE ([18]; 63 g ai/ha)
99: phytotoxicity rating SETVI ([4]; 63 g ai/ha) | phytotoxicity rating SORHA ([6]; 63 g ai/ha) | phytotoxicity rating SETVI ([17]; 63 g ai/ha) | phytotoxicity rating SORHA ([19]; 63 g ai/ha)
85: phytotoxicity rating DIGSA ([8]; 63 g ai/ha) | phytotoxicity rating DIGSA ([21]; 63 g ai/ha)
0: phytotoxicity rating XANST ([2]; 63 g ai/ha) | crop damage rating RICE ([13]; 63 g ai/ha) | phytotoxicity rating XANST ([15]; 63 g ai/ha) | crop damage rating RICE ([26]; 63 g ai/ha)
55: phytotoxicity rating ECHCO ([1]; 63 g ai/ha) | phytotoxicity rating ECHCG ([14]; 63 g ai/ha)
100: phytotoxicity rating ECHCO ([1]; 250 g ai/ha) | phytotoxicity rating AMBEL ([3]; 250 g ai/ha) | phytotoxicity rating SETVI ([4]; 250 g ai/ha) | phytotoxicity rating IPOHE ([5]; 250 g ai/ha) | phytotoxicity rating SORHA ([6]; 250 g ai/ha) | phytotoxicity rating CHEAL ([7]; 63 g ai/ha) | phytotoxicity rating CHEAL ([7]; 250 g ai/ha) | phytotoxicity rating DIGSA ([8]; 250 g ai/ha) | phytotoxicity rating AMARE ([9]; 63 g ai/ha, scale 0-100 (0 no damage, 100 complete death)) | phytotoxicity rating AMARE ([9]; 250 g ai/ha, scale 0-100) | phytotoxicity rating CASOB ([10]; 250 g ai/ha) | phytotoxicity rating ABUTH ([11]; 63 g ai/ha) | phytotoxicity rating ABUTH ([11]; 250 g ai/ha) | phytotoxicity rating ECHCG ([14]; 250 g ai/ha) | phytotoxicity rating AMBEL ([16]; 250 g ai/ha) | phytotoxicity rating SETVI ([17]; 250 g ai/ha) | phytotoxicity rating IPOHE ([18]; 250 g ai/ha) | phytotoxicity rating SORHA ([19]; 250 g ai/ha) | phytotoxicity rating CHEAL ([20]; 63 g ai/ha) | phytotoxicity rating CHEAL ([20]; 250 g ai/ha) | phytotoxicity rating DIGSA ([21]; 250 g ai/ha) | phytotoxicity rating AMARE ([22]; 63 g ai/ha) | phytotoxicity rating AMARE ([22]; 250 g ai/ha) | phytotoxicity rating CASOB ([23]; 250 g ai/ha) | phytotoxicity rating ABUTH ([24]; 63 g ai/ha) | phytotoxicity rating ABUTH ([24]; 250 g ai/ha)
50: phytotoxicity rating CASOB ([10]; 63 g ai/ha) | crop damage rating CORN ([12]; 250 g ai/ha) | phytotoxicity rating CASOB ([23]; 63 g ai/ha) | crop damage rating CORN ([25]; 250 g ai/ha)
75: phytotoxicity rating AMBEL ([3]; 63 g ai/ha) | phytotoxicity rating AMBEL ([16]; 63 g ai/ha)
